Measured values reported in patent US20250042912A1, “NOVEL NON-FLUORINATED QUINOLONE COMPOUND AND USE THEREOF” (priority 2021, published 2025).
Values after ≈ are worked out from the molar mass of the structure shown.

How the values were obtained:
[1] = test system: Propionibacterium acnes ATCC 6919; assay: Minimum inhibitory concentration (MIC) assay, Propionibacterium acnes ATCC 6919; format: cell-based; settings: Cutibacterium acnes, ATCC6919; anaerobic culture 35+/-2°C, 48 hours; read with naked eyes
Method: On the day of the experiment, the compound in the flask was dissolved in 100% DMSO until the concentration of mother liquor was 0.4 mg/mL. If the mother liquor was not used on the same day, it was stored at −80° C. for future use. The compound mother liquor and standard antibiotics were subjected to 2-fold gradient dilution with corresponding solvents on a 96-microwell plate (V-bottom) to obtain 100× working solutions (Well 1 to Well 7) in sequence. Among them, the concentrations of the compound were 400 μg/mL, 200 μg/mL, 100 μg/mL, 50 μg/mL, 25 μg/mL, 12.5 μg/mL, 6.25 μg/mL, and 3.125 μg/mL. 100% DMSO was used as growth control (Well 8). As such, the compound motherplate was obtained. Two days before the experiment, anaerobic bacteria (Propionibacterium acnes) stored in a cryogenic tube at −80° C. were scribed on an MBA (Brucella Agar+5% (v/v) defibrillated sheep blood+[…] Hemin+1 μg/mLVitamin K1) plate. The anaerobic bacteria were placed in a 35+/−2° C. anaerobic incubator for 42-48 hours of cultivation. On the day of the experiment, the plate was taken out, clones were picked from the plate and suspended in physiological saline. Then, the turbidity of the bacterial suspension (containing 1.0-2.0×10^8 CFU/mL) was adjusted to OD600=0.2 by a turbidity meter. Then, the adjusted bacterial suspension was diluted to an appropriate concentration with the assay culture medium: about 5×10^5 CFU/mL for aerobic bacteria, and about 1×10^6 CFU/mL for anaerobic bacteria. As such, the inoculating solution was obtained. […] Therefore, the final assay concentrations of the compound were 4 μg/mL, 2 μg/mL, 1 μg/mL, 0.5 μg/mL, 0.25 μg/mL, 0.125 μg/mL, 0.06 μg/mL and 0.03 μg/mL. The total volume of each well on the assay plate was 200 μL: containing 1% DMSO, about 5×10^5 CFU/mL of aerobic bacteria and about 1×10^6 CFU/mL of anaerobic bacteria. All assay plates for aerobic bacteria were aerobically cultured at 35+/−2° C. for 16 to 20 hours, and all assay plates for anaerobic bacteria were anaerobically cultured in an anaerobic incubator at 35+/−2° C. for 48 hours. Note: for anaerobic bacteria, both the preparation of bacterial solution in step 2 and the inoculation of bacterial solution in step 3 were operated in an anaerobic workstation.

[2] = test system: Staphylococcus epidermidis ATCC 12228; assay: Minimum inhibitory concentration (MIC) assay, Staphylococcus epidermidis ATCC 12228; format: cell-based; settings: ATCC12228, aerobic culture 35+/-2°C, 16 to 20 hours, read with naked eyes
Method: On the day of the experiment, the compound in the flask was dissolved in 100% DMSO until the concentration of mother liquor was 0.4 mg/mL. If the mother liquor was not used on the same day, it was stored at −80° C. for future use.
The compound mother liquor and standard antibiotics were subjected to 2-fold gradient dilution with corresponding solvents on a 96-microwell plate (V-bottom) to obtain 100× working solutions (Well 1 to Well 7) in sequence. Among them, the concentrations of the compound were 400 μg/mL, 200 μg/mL, 100 μg/mL, 50 μg/mL, 25 μg/mL, 12.5 μg/mL, 6.25 μg/mL, and 3.125 μg/mL. 100% DMSO was used as growth control (Well 8). As such, the compound motherplate was obtained.
One day before the experiment, aerobic bacteria (Staphylococcus epidermidis) stored in a cryogenic tube at −80° C. were scribed on an MHA (Cation-adjusted Mueller-Hinton agar) plate. The aerobic bacteria were placed in a 35+/−2° C. incubator for 18-24 hours of aerobic cultivation.
On the day of the experiment, the plate was taken out, clones were picked from the plate and suspended in physiological saline. Then, the turbidity of the bacterial suspension (containing 1.0-2.0×10^8 CFU/mL) was adjusted to OD600=0.2 by a turbidity meter. Then, the adjusted bacterial suspension was diluted to an appropriate concentration with the assay culture medium: about 5×10^5 CFU/mL for aerobic bacteria, and about 1×10^6 CFU/mL for anaerobic bacteria. As such, the inoculating solution was obtained.
2 μl of 2-fold series dilution of 100× high-concentration working solution was transferred from a compound mother plate (prepared in step 1) to a round-bottom 96-well plate, and then 198 μL of bacterial inoculating solution (prepared in step 2) was added to each well to obtain an MIC assay plate. Therefore, the final assay concentrations of the compound were 4 μg/mL, 2 μg/mL, 1 μg/mL, 0.5 μg/mL, 0.25 μg/mL, 0.125 μg/mL, 0.06 μg/mL and 0.03 μg/mL. The total volume of each well on the assay plate was 200 μL: containing 1% DMSO, about 5×10^5 CFU/mL of aerobic bacteria and about 1×10^6 CFU/mL of anaerobic bacteria.
All assay plates for aerobic bacteria were aerobically cultured at 35+/−2° C. for 16 to 20 hours, and all assay plates for anaerobic bacteria were anaerobically cultured in an anaerobic incubator at 35+/−2° C. for 48 hours.

MIC [1]: 0.03 µg/mL (≈ 0.0766 µM) | MIC [2]: 0.06 µg/mL (≈ 0.153 µM)
Compound: CN(C)c1cc2c(cn1)-c1ccc3c(=O)c(C(=O)O)cn(C4CC4)c3c1COC2 [Compound 6]
